US20150307938A1, “METHOD TO IDENTIFY A NOVEL CLASS OF IMMUNOLOGIC ADJUVANTS” (Lancell, L.L.C., priority 2011, published 2015)

Test system: skin
Experiment: Affymetrix microarray of skin, DBP-4 hr and analogs vs. untreated; gene selection by log-2 fold change, Wilcoxon, Kendall tau (Tables 8, 9)
Format: in vivo, mouse
Details: DBP-4 hr vs. untreated

## CCCCOC(=O)c1ccccc1C(=O)OCCCC [DBP, dibutylphthalate]
  NA (AFFX-BioC-3_at) Wilcoxon: Yes
  NA (AFFX-BioC-5_at) Wilcoxon: Yes
  NA (AFFX-BioDn-3_at) Wilcoxon: Yes
  NA (AFFX-BioDn-5_at) Wilcoxon: Yes
  NA (AFFX-ThrX-5_at) Wilcoxon: Yes
  Nfil3 (NM_017373_at) Wilcoxon: Yes
  Nfkbia (NM_010907_at) Wilcoxon: No
  Nfkbiz (NM_030612_at) Wilcoxon: Yes
  Nr4a2 (NM_013613_at) Wilcoxon: Yes
  Otud7a (NM_130880_at) Wilcoxon: No
  Pde4b (NM_019840_at) Wilcoxon: Yes
  Pdk4 (NM_013743_at) Wilcoxon: Yes
  Plaur (NM_011113_at) Wilcoxon: No
  Plek (NM_019549_at) Wilcoxon: Yes
  Plscr1 (NM_011636_at) Wilcoxon: No
  Pmaip1 (NM_021451_at) Wilcoxon: Yes
  Prss22 (NM_133731_at) Wilcoxon: Yes
  Ptges (NM_022415_at) Wilcoxon: No
  Pyy (NM_145435_at) Wilcoxon: Yes
  Rab20 (NM_011227_at) Wilcoxon: Yes
  Ramp3 (NM_019511_at) Wilcoxon: No
  Rgs1 (NM_015811_at) Wilcoxon: Yes
  Rnf19b (NM_029219_at) Wilcoxon: No
  Saa3 (NM_011315_at) Wilcoxon: Yes
  Slc5a1 (NM_019810_at) Wilcoxon: Yes
  Slc7a5 (NM_011404_at) Wilcoxon: Yes
  Slc10a6 (NM_029415_at) Wilcoxon: No
  Slc15a3 (NM_023044_at) Wilcoxon: No
  Slc25a25 (NM_146118_at) Wilcoxon: No
  Slc34a2 (NM_011402_at) Wilcoxon: Yes
  Slc39a8 (NM_026228_at) Wilcoxon: Yes
  Slfn2 (NM_011408_at) Wilcoxon: Yes
  Slfn4 (NM_011410_at) Wilcoxon: Yes
  Slpi (NM_011414_at) Wilcoxon: Yes
  Smox (NM_145533_at) Wilcoxon: Yes
  Stfa3 (NM_025288_at) Wilcoxon: Yes
  Timp1 (NM_011593_at) Wilcoxon: Yes
  Tlr2 (NM_011905_at) Wilcoxon: Yes
  Tnf (NM_013693_at) Wilcoxon: Yes
  Tnfrsf12a (NM_013749_at) Wilcoxon: Yes
  Tslp (NM_021367_at) Wilcoxon: Yes
  Tslp (NR_033206_at) Wilcoxon: Yes
  Tubb6 (NM_026473_at) Wilcoxon: Yes
  Uap1 (NM_133806_at) Wilcoxon: No
  Zc3h12a (NM_153159_at) Wilcoxon: Yes
  Zfp36 (NM_011756_at) Wilcoxon: Yes
  Zfp593 (NM_024215_at) Wilcoxon: No
rank-sum p-value
  1110032A04Rik NM_133675_at Wilcoxon: Yes
  2510002D24Rik NM_001033164_at Wilcoxon: No
  2510009E07Rik NM_001001881_at Wilcoxon: No
  2610528A11Rik XR_105647_at Wilcoxon: Yes
  1500015010Rik NM_024283_at Wilcoxon: Yes
  3110079015Rik NM_028473_at Wilcoxon: Yes
  A2m NM_175628_at Wilcoxon: Yes
  AY026312 NM_133359_at Wilcoxon: Yes
  Actn2 NM_033268_at Wilcoxon: Yes
  Akr1c14 NM_134072_at Wilcoxon: Yes
  Aldh7a1 NM_001127338_at Wilcoxon: No
  Aox4 NM_023631_at Wilcoxon: Yes
  Asb5 NM_029569_at Wilcoxon: Yes
  Atp2a2 NM_001110140_at Wilcoxon: No
  Atp13a3 NM_001128094_at Wilcoxon: No
  Atp13a3 NM_001128096_at Wilcoxon: No
  Bcr NM_001081412_at Wilcoxon: No
  Camk2g NM_001039138_at Wilcoxon: No
  Camk2g NM_001039139_at Wilcoxon: No
  Ccl8 NM_021443_at Wilcoxon: Yes
  Ccl24 NM_019577_at Wilcoxon: Yes
  Cd209d NM_130904_at Wilcoxon: Yes
  Ckmt2 NM_198415_at Wilcoxon: Yes
  Cldn8 NM_018778_at Wilcoxon: Yes
  Clec4n NM_020001_at Wilcoxon: Yes
  Cmya5 NM_023821_at Wilcoxon: Yes
  Comp NM_016685_at Wilcoxon: Yes
  Corin NM_016869_at Wilcoxon: Yes
  Crispld1 NM_031402_at Wilcoxon: Yes
  Cxcl10 NM_021274_at Wilcoxon: Yes
  Cxcr6 NM_030712_at Wilcoxon: Yes
  Cyth1 NM_001112699_at Wilcoxon: No
  Cyth1 NM_001112700_at Wilcoxon: No
  Dbp NM_016974_at Wilcoxon: Yes
  Deptor NM_001037937_at Wilcoxon: No
  Dlgap4 NM_001042487_at Wilcoxon: No
  Dlgap4 NM_001042488_at Wilcoxon: No
  Ear5 NM_019398_at Wilcoxon: Yes
  Fam134b NM_001034851_at Wilcoxon: No
  Gcdh NM_001044744_at Wilcoxon: No
  Gm10228 XM_001474297_at Wilcoxon: Yes
  Gm10228 XM_003086004_at Wilcoxon: Yes
